The source of these data is article PMC9854728, “Synthesis and Antioxidant Properties of Novel 1,2,3-Triazole-Containing Nitrones” (Antioxidants, 2022).

Like-named read-outs stand apart in the source and are kept apart here.

By melting point is commonly meant the temperature, or range, at which the solid turns liquid. In general, IC50 refers to the midpoint of a concentration-inhibition curve. For orientation: inhibition means the change of the read-out against control, counted positive when it falls. A higher inhibition goes with strong suppression.

A short description of series [1]: ABTS radical cation decolorization assay. To be noted: tested at 100 µM, 1 min, 734 nm; no = no activity. The procedure: (§1) The in vitro antioxidant assays for nitrones 8 and 9 were performed concentrations of 100 µM (from a stock solution 10 mM in 0.1% DMSO in deionized water). Several dilutions were made when the determination of IC50 values was needed. All the determinations were made, at least in triplicate, and the standard deviation of absorbance was less than 10% of the mean. The nitrones were diluted under sonification in the appropriate buffer in several dilutions (Table 1).
ABTS stock solution in water (7 mM) was mixed with potassium persulfate (2.45 mM) and left in the dark at rt for 12–16 h before use, followed by the production of the ABTS radical cation (ABTS^+·). The assay was performed as described previously. The results were recorded after 1 min of the mixing solutions at 734 nm. Trolox was used as a positive control.

Series [2] in a line: Competition with DMSO for hydroxyl radicals. The note with it: tested at 100 µM, Fe3+/ascorbic acid system, 37 °C, 30 min; no = no activity. The procedure: as §1
The hydroxyl radicals, produced by the Fe^3+/ascorbic acid system, were detected by the determination of formaldehyde produced from the oxidation of DMSO [8]. Solutions of EDTA (0.1 mM), Fe^3+ (167 μM), DMSO (33 mM) in phosphate buffer (50 mM, pH 7.4), as well as the tested compounds (10 μL final concentration 100 μM) and ascorbic acid (10 mM) were mixed in test tubes and incubated at 37 °C for 30 min. The reaction was stopped by adding CCl3COOH (17% w/v), and the % competition activity of the nitrones 8 and 9 with DMSO for hydroxyl radicals was calculated. Trolox was used as a positive control.

The target of series [3] is T1, soybean lipoxygenase (LOX) (Glycine max, UniProt P08170).
T1 construct: purchased Aldrich Chemical Co. (Milwaukee, WI, USA)
T1 sequence (P08170 1-839): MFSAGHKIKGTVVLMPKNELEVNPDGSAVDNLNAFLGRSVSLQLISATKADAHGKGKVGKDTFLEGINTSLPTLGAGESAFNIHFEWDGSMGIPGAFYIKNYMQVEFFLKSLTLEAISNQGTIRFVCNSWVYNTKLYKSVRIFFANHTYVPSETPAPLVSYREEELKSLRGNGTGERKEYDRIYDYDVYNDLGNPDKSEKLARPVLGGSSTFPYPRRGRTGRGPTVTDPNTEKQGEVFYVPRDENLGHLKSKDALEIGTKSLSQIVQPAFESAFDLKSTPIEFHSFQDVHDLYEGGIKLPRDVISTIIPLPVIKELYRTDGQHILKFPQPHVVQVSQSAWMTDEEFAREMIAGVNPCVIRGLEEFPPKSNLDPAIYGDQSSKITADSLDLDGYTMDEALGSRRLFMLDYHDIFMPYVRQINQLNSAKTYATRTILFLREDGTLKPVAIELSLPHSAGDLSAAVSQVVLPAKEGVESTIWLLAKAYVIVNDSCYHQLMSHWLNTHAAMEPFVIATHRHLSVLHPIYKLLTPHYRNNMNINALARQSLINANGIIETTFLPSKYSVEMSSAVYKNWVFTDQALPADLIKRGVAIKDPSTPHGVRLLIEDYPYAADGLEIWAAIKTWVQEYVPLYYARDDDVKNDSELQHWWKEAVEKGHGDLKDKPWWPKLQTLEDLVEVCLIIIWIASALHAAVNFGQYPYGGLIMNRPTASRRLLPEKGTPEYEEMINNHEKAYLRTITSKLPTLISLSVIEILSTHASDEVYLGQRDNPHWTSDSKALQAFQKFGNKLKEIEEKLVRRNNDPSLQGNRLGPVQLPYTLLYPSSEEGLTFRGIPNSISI
Description: In vitro inhibition of soybean lipoxygenase (LOX). Format: biochemical. The note with it: for inhibition at 100 µM / LOX Inhibition (%): tested at 100 µM, no = no activity under the experimental conditions; for LOX Inhibition (%): 100 µM. The procedure: The in vitro antioxidant assays for nitrones 8 and 9 were performed concentrations of 100 µM (from a stock solution 10 mM in 0.1% DMSO in deionized water). Several dilutions were made when the determination of IC50 values was needed. […] The nitrones were diluted under sonification in the appropriate buffer in several dilutions (Table 1).
The in vitro study was evaluated as reported previously. Compounds 8a–f or 9a–f (10 μL) were incubated at rt with sodium linoleate (0.1 mM) and 200 μL of enzyme solution (1/9 × 10^–4 w/v in saline). Tris buffer pH 9 was inserted. The conversion of sodium linoleate to 13-hydroperoxylinoleic acid was recorded at 234 nm. […] Several dilutions of compounds were used for the determination of IC50 values. Blank determination served as the negative control.

The nature of series [4]: Inhibition of linoleic acid peroxidation (ILP) induced by AAPH. The note with it: tested at 100 µM, 37 °C. The procedure: as §1
The production of conjugated diene hydroperoxide by the oxidation of linoleate sodium 16 mM linoleate sodium (10 µL) in an aqueous solution is monitored at 234 nm. AAPH 40 mM (50 µL) is used as a free radical initiator at 37 °C under air conditions, followed by the tested nitrones. This assay can be used to follow oxidative changes by recording the absorbance values at 234 nm, using Trolox as a reference compound. The experimental procedure follows our previously reported protocol.

[5] abbreviates: soybean LOX, sodium linoleate 0.1 mM, Tris buffer pH 9, read-out: LOX Inhibition IC50.

`C[N+]([O-])=CCn1cc(-c2ccccc2)nn1` [Nitrone 8a, N-(2-(4-Phenyl-1H-1,2,3-Triazol-1-yl)Ethylidene)Methanamine Oxide] returned a melting point of 97 to 98 °C. The “ABTS+• (%)” value in series [1] worked out at 14%. Moreover, in series [2], the “Scavenging Activity for HO• (%)” value came out at 93%. Also, the half-inhibitory concentration (IC50) in series [3] (setting [5]) is 37.5 µM. Also, the “ILP (%)” value in series [4] was found to be 48.4%.
Regarding `C[N+]([O-])=CCn1cc(-c2ccccc2F)nn1` [Nitrone 8b, N-(2-(4-(2-Fluorophenyl)-1H-1,2,3-Triazol-1-yl)Ethylidene)Methanamine Oxide], the melting point lay within 125 to 126 °C. Further, the “ABTS+• (%)” value in series [1] was determined as 13%. In addition, the “Scavenging Activity for HO• (%)” value in series [2] is reported as 61%. The inhibition at 100 µM in series [3] was determined as 24%. Moreover, in series [4], the “ILP (%)” value is reported as 2%.
On the same counts, the results for `C[N+]([O-])=CCn1cc(-c2cccc(F)c2)nn1` [Nitrone 8c, N-(2-(4-(3-Fluorophenyl)-1H-1,2,3-Triazol-1-yl)Ethylidene)Methanamine Oxide] are 158 to 160 °C, “no”, 59%, 40% and 65%.
`C[N+]([O-])=CCn1cc(-c2ccc(F)cc2)nn1` [Nitrone 8d, N-(2-(4-(4-Fluorophenyl)-1H-1,2,3-Triazol-1-yl)Ethylidene)Methanamine Oxide] came in with a melting point of 165 to 167 °C. Moreover, in series [1], the “ABTS+• (%)” value came to 5.3%. Also, the “Scavenging Activity for HO• (%)” value in series [2] was 80%. Moreover, the “LOX Inhibition (%)” value in series [3] is “loses its activity and no”. Besides, the “ILP (%)” value in series [4] was determined as 54%.
The compound `C[N+]([O-])=CCn1cc(-c2ccc(F)cc2F)nn1` [Nitrone 8e, N-(2-(4-(2,4-Difluorophenyl)-1H-1,2,3-Triazol-1-yl)Ethylidene)Methanamine Oxide] registered a melting point of 122 to 123 °C. Further, the “ABTS+• (%)” value in series [1] is recorded as “no”. Also, the “Scavenging Activity for HO• (%)” value in series [2] was determined as 76%. The compound also came in with a half-inhibitory concentration (IC50) in series [3] of 87.5 µM. In series [4], the “ILP (%)” value was found to be 87%.
The compound `Cc1cc(-c2cn(CC=[N+](C)[O-])nn2)ccc1F` [Nitrone 8f, N-(2-(4-(4-Fluoro-3-Methylphenyl)-1H-1,2,3-Triazol-1-yl)Ethylidene)Methanamine Oxide] showed a melting point of 171 to 173 °C. Also, the “ABTS+• (%)” value in series [1] was determined as 34.3%. In addition, in series [2], the “Scavenging Activity for HO• (%)” value amounted to 91.5%. The inhibition at 100 µM in series [3] is 44%. Besides, in series [4], the “ILP (%)” value is 41%.
On to `CC(C)(C)[N+]([O-])=CCn1cc(-c2ccccc2)nn1` [Nitrone 9a, 2-Methyl-N-(2-(4-Phenyl-1H-1,2,3-Triazol-1-yl)Ethylidene)Propan-2-Amine Oxide], for which the melting point was in the range of 91 to 93 °C. Also, the “ABTS+• (%)” value in series [1] was 4%. Also, the “Scavenging Activity for HO• (%)” value in series [2] is recorded as 76%. For the same compound, at 100 µM the inhibition in series [3] was 44%. Further, in series [4], the “ILP (%)” value is reported as 74.5%.
For the compound `CC(C)(C)[N+]([O-])=CCn1cc(-c2ccccc2F)nn1` [Nitrone 9b, N-(2-(4-(2-Fluorophenyl)-1H-1,2,3-Triazol-1-yl)Ethylidene)-2-Methylpropan-2-Amine Oxide], the melting point fell in the range of 72 to 73 °C. Further, in series [1], the “ABTS+• (%)” value is “no”. Besides, the “Scavenging Activity for HO• (%)” value in series [2] is 76%. In addition, the IC50 in series [3] (setting [5]) was 40 µM. In addition, in series [4], the “ILP (%)” value is recorded as 73%.
Compound `CC(C)(C)[N+]([O-])=CCn1cc(-c2cccc(F)c2)nn1` [Nitrone 9c, N-(2-(4-(3-Fluorophenyl)-1H-1,2,3-Triazol-1-yl)Ethylidene)-2-Methylpropan-2-Amine Oxide] yielded a melting point of 94 to 95 °C. Besides, the “ABTS+• (%)” value in series [1] is given as “no”. The “Scavenging Activity for HO• (%)” value in series [2] is 89%. Besides, the “LOX Inhibition (%)” value in series [3] is “no inhibition and no”.
`CC(C)(C)[N+]([O-])=CCn1cc(-c2ccc(F)cc2)nn1` [Nitrone 9d, N-(2-(4-(4-Fluorophenyl)-1H-1,2,3-Triazol-1-yl)Ethylidene)-2-Methylpropan-2-Amine Oxide]: the melting point is 128 to 131 °C. Besides, the “ABTS+• (%)” value in series [1] is reported as “no”. For the same compound, in series [2], the “Scavenging Activity for HO• (%)” value is listed as 99%. Moreover, in series [3] (setting [5]), the concentration for half-maximal inhibition (IC50) turned out to be 100 µM.
The compound `CC(C)(C)[N+]([O-])=CCn1cc(-c2ccc(F)cc2F)nn1` [Nitrone 9e, N-(2-(4-(2,4-Difluorophenyl)-1H-1,2,3-Triazol-1-yl)Ethylidene)-2-Methylpropan-2-Amine Oxide] showed a melting point of 122 to 123 °C. For the same compound, the “ABTS+• (%)” value in series [1] is recorded as “no”. Also, the “Scavenging Activity for HO• (%)” value in series [2] came to 100%. Also, in series [3] (soybean LOX, sodium linoleate 0.1 mM, Tris buffer pH 9), the “LOX Inhibition IC50” value is “equipotent to the 9d”. For the same compound, the 50% inhibitory concentration (IC50) in series [3] (setting [5]) came out at 100 µM. Also, in series [4], the “ILP (%)” value came to 100%.
Take `Cc1cc(-c2cn(CC=[N+]([O-])C(C)(C)C)nn2)ccc1F` [Nitrone 9f, N-(2-(4-(4-Fluoro-3-Methylphenyl)-1H-1,2,3-Triazol-1-yl)Ethylidene)-2-Methylpropan-2-Amine Oxide]: the melting point fell in the range of 104 to 107 °C. Moreover, the “ABTS+• (%)” value in series [1] stood at 16%. The “Scavenging Activity for HO• (%)” value in series [2] is on record as 99.9%. In series [3] (IC50 27 μM vs NDGA […]), the “LOX inhibition, fold less potent than NDGA” value came to 60 fold. For the same compound, the IC50 in series [3] (setting [5]) came out at 27 µM. Moreover, in series [4], the “ILP (%)” value was found to be 87%.
For `CC(C)(C)/[N+]([O-])=C/c1ccccc1` [PBN, (Z)-N-tert-butyl-1-phenylmethanimine oxide, reference compound], the “ABTS+• (%)” value in series [1] came to 5%. For the same compound, in series [2], the “Scavenging Activity for HO• (%)” value is “no”. Moreover, in series [4], the “ILP (%)” value was found to be 11%.
For `Cc1c(C)c2c(c(C)c1O)CCC(C)(C(=O)O)O2` (stereo not drawn) [Trolox, reference compound], in series [1], the “ABTS+• (%)” value came to 91%. In series [2], the “Scavenging Activity for HO• (%)” value was 88%. Besides, the “ILP (%)” value in series [4] worked out at 93%.
